Test results as given in patent US20240228448A1 (Washington University, priority 2021, published 2024).
Like-named read-outs stand apart in the source and are kept apart here.

Legend:
S1P2-5 = experiment: competitive S1Ps cell membrane binding assay against [32P]S1P, S1P2-5 reported together; details: for selectivity over S1P2-5: in words
From the text: (§2) One way to measure affinity is use of a general competition binding assay.

S1P4 = biological target: T1, S1P4 (Homo sapiens, UniProt O95977); experiment: competitive S1Ps cell membrane binding assay against [32P]S1P, S1P4; details: Table 6; read-out: IC50 for S1P4
T1 sequence (O95977 1-384): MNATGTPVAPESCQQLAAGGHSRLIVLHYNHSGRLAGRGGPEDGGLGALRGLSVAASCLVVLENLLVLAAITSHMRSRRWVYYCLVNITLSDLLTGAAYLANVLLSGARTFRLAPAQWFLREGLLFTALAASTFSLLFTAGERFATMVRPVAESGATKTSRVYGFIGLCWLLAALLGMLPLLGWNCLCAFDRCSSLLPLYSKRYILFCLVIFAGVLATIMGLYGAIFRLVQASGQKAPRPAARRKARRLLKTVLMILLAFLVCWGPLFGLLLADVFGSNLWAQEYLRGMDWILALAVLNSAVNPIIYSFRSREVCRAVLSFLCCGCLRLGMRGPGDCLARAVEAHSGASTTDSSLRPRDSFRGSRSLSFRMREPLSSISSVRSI

S1P5 = S1P5 (Homo sapiens, UniProt Q9H228); experiment: competitive S1Ps cell membrane binding assay against [32P]S1P, S1P5
From the text: as §2

S1P1 [1] = biological target: S1P1 (Homo sapiens, UniProt P21453); experiment: competitive S1Ps cell membrane binding assay against [32P]S1P, S1P1; details: for IC50 for S1P1 (nM): Table 6, single determinations
From the text: as §2

S1P2 = S1P2 (Homo sapiens, UniProt O95136); experiment: competitive S1Ps cell membrane binding assay against [32P]S1P, S1P2; details: Table 6
S1P3 = S1P3 (Homo sapiens, UniProt Q99500); experiment: competitive S1Ps cell membrane binding assay against [32P]S1P, S1P3; details: Table 6
S1P1 [2] = biological target: T2, S1P1 (Mus musculus, UniProt O08530); experiment: PET with [18F]TZ4877 in S. aureus infected mice; assay type: in vivo; details: microPET, in words
T2 construct: from tissue; host or cells: living mice (whole body, brain, tissues)
Description: Mice were euthanized at 30 min, and S. aureus was injected 24 hours prior to radiotracer injection. […] IHC staining was used for confirmation in infected versus sham controls (FIG. 12E). Increasing signals of the inflammation related cytokines and chemokines were detected in liver.

[3] = HPLC radiometabolite analysis of nonhuman primate plasma, [18F]TZ82112; assay type: in vivo; details: NHP plasma compared with rat plasma, in words
From the text: (§1) Considering the high NHP brain uptake and clinically favorable pharmacokinetics compared to other F-18 S1PR1 radiotracers such as [^18F]FCS1P1 and [^18F]4877, we believe [^18F]TZ82112 is worth to transfer into clinical evaluation to confirm [18F]TZ82112 is the best S1PR1 radiotracer for clinical assessment of the neuroinflammation status by measurement of the S1PR1 receptor expression level. On the other side, as a S1PR1 radiotracer, [^18F]TZ82112 has its limitation for preclinical investigation because it quickly metabolites to form a lipophilic radiometabolite which will increase noise signal for PET measurement of S1PR1 expression in inflamed tissues.

[4] = Ex-vivo rat biodistribution and EAE rat PET studies of [18F]TZ82112; details: in words
[5] = HPLC radiometabolite analysis of rat plasma and rat brain, [18F]TZ82112; assay type: in vivo; details: in words
From the text: as §1

S1PR1 = experiment: NHP PET brain imaging blocking studies; assay type: in vivo, nonhuman primate; details: NHP PET self-blocking, in words
[6] = Table 7, read-out: IC50 (nM) S1P2-5
[7] = Table 5, read-out: IC50 (nM) S1P5
[8] = read-out: IC50 (nM) S1P1, Table 7

S1P1 (Homo sapiens, UniProt P21453), sequence (P21453 whole entry, species assumed): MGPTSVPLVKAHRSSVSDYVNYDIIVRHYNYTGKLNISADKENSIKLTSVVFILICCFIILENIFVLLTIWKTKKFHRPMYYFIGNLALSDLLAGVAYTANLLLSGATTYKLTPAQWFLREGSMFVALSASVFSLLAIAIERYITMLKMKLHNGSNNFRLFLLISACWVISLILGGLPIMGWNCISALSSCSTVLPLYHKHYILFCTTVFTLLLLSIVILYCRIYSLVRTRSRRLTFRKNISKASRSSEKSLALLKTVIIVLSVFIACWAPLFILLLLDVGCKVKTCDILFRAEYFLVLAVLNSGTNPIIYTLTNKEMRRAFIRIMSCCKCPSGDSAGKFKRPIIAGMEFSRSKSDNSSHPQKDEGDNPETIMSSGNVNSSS
S1P5, sequence (Q9H228 whole entry, species assumed): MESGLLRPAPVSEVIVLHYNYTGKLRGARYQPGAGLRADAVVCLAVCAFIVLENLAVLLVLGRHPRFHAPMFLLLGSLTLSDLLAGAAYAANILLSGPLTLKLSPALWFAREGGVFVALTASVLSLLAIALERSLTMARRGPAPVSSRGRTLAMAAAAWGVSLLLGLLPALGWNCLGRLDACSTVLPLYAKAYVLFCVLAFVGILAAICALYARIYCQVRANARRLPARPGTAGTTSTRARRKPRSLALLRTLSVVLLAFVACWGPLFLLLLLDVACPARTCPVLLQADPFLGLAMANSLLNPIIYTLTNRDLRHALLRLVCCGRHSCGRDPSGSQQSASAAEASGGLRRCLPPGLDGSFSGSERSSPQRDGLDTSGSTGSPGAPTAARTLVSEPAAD
S1P3, sequence (Q99500 whole entry, species assumed): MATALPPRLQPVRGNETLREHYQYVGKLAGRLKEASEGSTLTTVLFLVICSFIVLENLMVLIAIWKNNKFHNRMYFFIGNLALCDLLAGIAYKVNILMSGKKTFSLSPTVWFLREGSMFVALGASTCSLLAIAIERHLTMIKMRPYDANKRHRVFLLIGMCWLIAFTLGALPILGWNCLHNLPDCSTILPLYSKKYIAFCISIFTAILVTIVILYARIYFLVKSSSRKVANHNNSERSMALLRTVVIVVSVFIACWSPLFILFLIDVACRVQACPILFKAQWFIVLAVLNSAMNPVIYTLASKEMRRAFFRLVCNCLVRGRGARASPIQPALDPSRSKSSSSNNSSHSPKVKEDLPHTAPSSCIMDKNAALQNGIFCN
S1P2, sequence (O95136 whole entry, species assumed): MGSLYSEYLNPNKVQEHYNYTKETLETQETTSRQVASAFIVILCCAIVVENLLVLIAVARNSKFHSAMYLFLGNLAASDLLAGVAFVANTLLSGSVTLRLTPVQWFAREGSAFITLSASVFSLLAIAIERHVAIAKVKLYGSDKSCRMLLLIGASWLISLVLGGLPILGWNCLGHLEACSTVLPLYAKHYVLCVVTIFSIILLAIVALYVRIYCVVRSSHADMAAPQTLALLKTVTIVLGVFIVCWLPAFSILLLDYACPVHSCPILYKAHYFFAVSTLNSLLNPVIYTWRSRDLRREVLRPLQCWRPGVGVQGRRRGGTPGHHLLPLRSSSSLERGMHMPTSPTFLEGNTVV
T2 sequence (O08530 whole entry): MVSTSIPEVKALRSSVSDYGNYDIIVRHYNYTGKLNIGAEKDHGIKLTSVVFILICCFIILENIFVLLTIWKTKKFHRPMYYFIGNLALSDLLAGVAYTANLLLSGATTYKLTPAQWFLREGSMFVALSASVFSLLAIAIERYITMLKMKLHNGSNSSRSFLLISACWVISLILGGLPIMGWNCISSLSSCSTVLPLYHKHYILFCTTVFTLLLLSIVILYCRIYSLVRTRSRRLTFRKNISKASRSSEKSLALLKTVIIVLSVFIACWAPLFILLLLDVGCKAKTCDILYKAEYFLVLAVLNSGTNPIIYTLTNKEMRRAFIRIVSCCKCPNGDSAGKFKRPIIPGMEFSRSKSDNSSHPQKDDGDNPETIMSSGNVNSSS

## Cc1ccccc1-c1ccc(-c2nc(-c3ccc(CN(C)CC(=O)O)c(F)c3)no2)cc1C(F)(F)F [TZ82-47]
S1P2-5; [6]
  IC50: > 1000 nM
S1P2-5
  selectivity over S1P2-5: good selectivity
S1P4
  IC50: > 1000 nM
S1P5; [7]
  IC50: 77.3 nM
S1P5; Table 6
  IC50 for S1P5 (nM): Not fit
S1P1 [1]; IC50 for S1P1, running text
  IC50: < 20 nM
S1P1 [1]
  IC50 for S1P1 (nM): Not detected
S1P1 [1]; [8]
  IC50: 7.6 ± 0.2 nM
S1P2
  IC50: > 1000 nM
S1P3
  IC50 for S1P3 (nM): Not fit

## Cc1ccccc1-c1ccc(-c2nc(-c3ccc(CN(C)CCCC(=O)O)c(F)c3)no2)cc1C(F)(F)F [TZ82-48]
S1P2-5; [6]
  IC50: > 1000 nM
S1P2-5
  selectivity over S1P2-5: good selectivity
S1P4
  IC50: > 1000 nM
S1P5; [7]
  IC50: 23.1 nM
S1P5; Table 6, read-out: IC50 for S1P5
  IC50: 194 nM
S1P1 [1]; IC50 for S1P1, running text
  IC50: < 20 nM
S1P1 [1]
  IC50 for S1P1 (nM): Not detected
S1P1 [1]; [8]
  IC50: 0.8 ± 0.2 nM
S1P2
  IC50: > 1000 nM
S1P3
  IC50: 189 nM

## OCCOCc1ccc(-c2noc(-c3ccc(OCC[18F])c(C(F)(F)F)c3)n2)cc1 [[^18F]TZ4877]
S1P2-5; read-out: IC50 for S1P2-5
  IC50: > 1000 nM
S1P1 [2]
  brain uptake, infected versus sham mice: higher uptake in infected mice

## CN(CCCO)Cc1ccc(-c2noc(-c3ccc(OCC[18F])c(C(F)(F)F)c3)n2)cc1F [[^18F]TZ82112]
[3]
  percentage of the same radiometabolite in plasma: much lower
[4]; EAE rat model of MS, PET
  spinal cord uptake compared to the normal controls: increased spinal cord uptake
[4]; ex-vivo rat biodistribution
  brain uptake and washout: high initial brain uptake and good brain washout kinetics
[5]; rat brain tissue samples
  radiometabolite in brain tissue: no radioactive metabolite
[5]; rat plasma
  radiometabolite in plasma: quickly generated a high percentage of a radiometabolite
S1PR1
  brain uptake after pretreatment with cold TZ82112: reduce the its brain uptake
